{"source": "patent US20250099475A1", "about": "“METHODS OF TREATING HYPERTENSION BY PERIODIC SUPPRESSION OF ALDOSTERONE SYNTHASE” (Mineralys Therapeutics, Inc., priority 2022, published 2025)", "key": {"[1]": {"assay": "Phase 1 part 2 multiple ascending dose: pharmacokinetics", "type": "in vivo, human", "settings": "for half-life: male, human, plasma, oral", "experimental": "A 4-part, Phase 1 randomized, double-blind, placebo-controlled, first-in-human study was performed to determine the safety, tolerability, PK, and PD of single ascending doses (SADs; part 1) and multiple ascending doses (MADs; part 2) of Compound A HBr in healthy participants. The study also assessed whether there were sex (part 3) and age-related (part 4) effects on the PK of a single dose of Compound A HBr. The study was approved by the local independent ethics committee; the BEBO foundation in Assen, Netherlands; and the Central Committee on Research Involving Human Subjects in The Hague, Netherlands; and conducted according to the provisions of the Declaration of Helsinki. Written informed consent was obtained from each study participant before conducting any protocol-related procedures.\nIn part 2, Compound A HBr or placebo was administered to a total of 36 healthy Caucasian men aged 19 to 54 years (inclusive) in 3 cohorts of 12 participants each. In each cohort, 9 participants were randomized to receive multiple doses of Compound A HBr and 3 participants were randomized to receive matching placebo. The participants received daily doses in the fed state from Day 1 to Day 7. The doses were administered in an ascending order per cohort. Progression to the next dose level and dose selection were based on available data from part 1 and the preceding dose cohort in part 2 (safety, tolerability, and PD data [up to 48 hours post-final dose] and available PK data [up to 24 hours post-final dose] from a minimum of 10 participants [Compound A HBr n≥7] in the preceding dose cohort). The final dose levels of Compound A HBr for part 2 were 40, 120, and 360 mg. An ACTH challenge test was performed on Day −2 and on Day 6 to evaluate Compound A HBr selectivity for aldosterone synthesis. Plasma concentrations of aldosterone and 11-deoxycortisol and serum concentrations of cortisol and 11-DOC were measured pre-ACTH dose and 30 and 60 minutes post-ACTH dose on Day −2 and Day 6.\nPlasma PK parameters were derived by non-compartmental analysis using WinNonlin® (version 6.3). Dose proportionality was assessed using the power model with AUC0-∞, AUC0-last, and Cmax for part 1 (SAD) and with AUC0-last, AUC0-∞, AUC0-τ, and Cmax for part 2 (MAD). A linear model (ln(Y)=α+β×ln(X), where Y is the pharmacokinetic parameter and X is the dose) was used to fit the power model, after log-transformation of the parameters. Dose proportionality was concluded if the 95% confidence interval (CI) for slope (β) included the value 1.\nAn analytical method for the determination of Compound A in human plasma (dipotassium ethylenediaminetetraacetic acid [K2-EDTA]) and human urine using solid-phase extraction and high-performance liquid chromatography with mass spectrometric detection was successfully validated over the concentration range 0.1000 ng/mL (lower limit of quantification) to 100.0 ng/mL prior to initiation of the clinical trial. […] For all other analytes, validated quantitative measurement methods were used."}, "human CYP11B2 (hCYP11B2)": {"target": "T1, human CYP11B2 (hCYP11B2) (Homo sapiens, UniProt P19099)", "T1 construct": "expressed in transfected cells; host or cells: V79 cells (mitochondrial fraction)", "T1 sequence (P19099 25-503)": "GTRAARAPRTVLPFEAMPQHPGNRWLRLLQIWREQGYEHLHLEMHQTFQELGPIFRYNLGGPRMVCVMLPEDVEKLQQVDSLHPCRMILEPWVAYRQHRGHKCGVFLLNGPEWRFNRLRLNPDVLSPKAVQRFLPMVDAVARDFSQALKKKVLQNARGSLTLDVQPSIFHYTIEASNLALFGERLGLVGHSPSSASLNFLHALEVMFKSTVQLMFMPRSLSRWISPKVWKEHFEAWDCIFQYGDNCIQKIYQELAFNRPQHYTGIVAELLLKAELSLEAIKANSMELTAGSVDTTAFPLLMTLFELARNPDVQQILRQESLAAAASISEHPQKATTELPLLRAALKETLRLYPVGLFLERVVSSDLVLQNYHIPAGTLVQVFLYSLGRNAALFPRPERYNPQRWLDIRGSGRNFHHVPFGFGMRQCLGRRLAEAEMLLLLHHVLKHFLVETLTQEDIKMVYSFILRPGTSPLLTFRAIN", "assay": "Assay of hCYP11B2 inhibition (11-DOC to aldosterone)", "type": "biochemical", "settings": "mitochondrial fraction of V79 cells stably expressing hCYP11B2; substrate 11-DOC; read-out: Inhibition constant (Ki) hCYP11B2", "experimental": "The inhibitory effects of Compound A on human CYP 11B1 (hCYP11B1) and human CYP11B2 (hCYP11B2) enzyme activity were evaluated by determining the enzymatic conversion rates of 11-deoxycortisol to cortisol for hCYP11B1 and 11-DOC to aldosterone for hCYP11B2."}, "[2]": {"tested_on": "46 targets in receptor binding and enzyme inhibition studies", "assay": "Pan-receptor screening", "source_text": "Compound A, at a concentration of 10 μmol/L, was screened against 46 targets in receptor binding and enzyme inhibition studies to determine if Compound A interacted with any off-target enzymes or receptors."}, "[3]": {"tested_on": "human adrenocortical NCI-H295R cell culture", "assay": "Inhibitory effects on adrenal steroidogenesis", "type": "cell-based", "settings": "3 days of incubation", "experimental": "Multiple concentrations of Compound A and aminoglutethimide (positive control) were evaluated in a human adrenocortical NCI-H295R cell culture. The effect of Compound A on adrenal steroidogenesis was determined by measurement of 12 steroid hormones in the culture medium after 3 days of incubation. The following steroids were measured: pregnenolone, 11-deoxycortisol, 17α-hydroxypregnenolone, 11-DOC, dehydroepiandrosterone, corticosterone, progesterone, cortisol, 17α-hydroxyprogesterone, aldosterone, androstenedione, and testosterone."}, "[4]": {"assay": "13-week repeat-dose oral toxicology study in rats", "type": "in vivo, rat", "settings": "both sexes, Sprague Dawley, rat, in vivo, oral, 13-week, read-out: no observed adverse effect level (NOAEL)", "experimental": "(§1) The toxicologic profile of Compound A was assessed in several toxicology studies, including 13-week repeat-dose oral studies in Sprague Dawley rats and cynomolgus monkeys, a standard battery of genotoxicity studies, preliminary embryo-fetal development studies in rats and rabbits, and in vitro and in vivo phototoxicity studies. Rats and monkeys were selected for the general toxicology studies on the basis of pharmacology and metabolism data that indicated these animals would have metabolism similar to that of humans. Studies were performed in accordance with GLP regulations.\n(§2) Doses in the 13-week toxicology studies were 0, 50, 150, 450 (female), and 600 (male) mg/kg/d in Sprague Dawley rats. In cynomolgus monkeys (females and males), the doses were 0, 10, 30, and 100 mg/kg/d. Hematoxylin-and-eosin-stained sections (nominal thickness of approximately 5 μm) were prepared from the formalin-fixed paraffin-embedded organs/tissues of all animals in the toxicology studies."}, "Sprague Dawley rats": {"tested_on": "Sprague Dawley rats", "assay": "13-week repeat-dose oral toxicology study in rats", "type": "in vivo, rat", "settings": "13-week daily dosing, doses ≥150 mg/kg/d", "experimental": "as §1, §2"}}, "note": "pIC50, pKi: −log10 of the molar value. Where two headings read alike, the source gives them in different places."}
{"smiles": "CC(=O)N[C@H]1CC[C@H](NC(=O)CN2CCN(c3nncc(-c4ccc(C)cc4)n3)CC2)CC1", "note": "[Compound A HBr]", "values": [{"measurement": "AUC0-24, mean (SD)", "setting": "[1]; 40 mg once daily, Day 1, fed", "result": "1574 (282) ng × h/mL"}, {"measurement": "Cmax, mean (SD)", "setting": "[1]; 40 mg once daily, Day 1, fed", "result": "252 (64) ng/mL"}, {"measurement": "Tmax, median and range", "setting": "[1]; 40 mg once daily, Day 1, fed", "result": "3 (0.5-5) h"}, {"measurement": "AUC0-24, mean (SD)", "setting": "[1]; 40 mg once daily, Day 7, fed", "result": "1795 (312) ng × h/mL"}, {"measurement": "Cmax, mean (SD)", "setting": "[1]; 40 mg once daily, Day 7, fed", "result": "365 (46) ng/mL"}, {"measurement": "T 1/2, mean (SD)", "setting": "[1]; 40 mg once daily, Day 7, fed", "result": "9 (2) h"}, {"measurement": "Tmax, median and range", "setting": "[1]; 40 mg once daily, Day 7, fed", "result": "1.5 (0.5-5) h"}, {"measurement": "AUC0-24, mean (SD)", "setting": "[1]; 120 mg once daily, Day 1, fed", "result": "4876 (1024) ng × h/mL"}, {"measurement": "Cmax, mean (SD)", "setting": "[1]; 120 mg once daily, Day 1, fed", "result": "887 (291) ng/mL"}, {"measurement": "Tmax, median and range", "setting": "[1]; 120 mg once daily, Day 1, fed", "result": "3 (0.5-8) h"}, {"measurement": "AUC0-24, mean (SD)", "setting": "[1]; 120 mg once daily, Day 7, fed", "result": "5816 (1315) ng × h/mL"}, {"measurement": "Cmax, mean (SD)", "setting": "[1]; 120 mg once daily, Day 7, fed", "result": "1039 (343) ng/mL"}, {"measurement": "T 1/2, mean (SD)", "setting": "[1]; 120 mg once daily, Day 7, fed", "result": "12 (2) h"}, {"measurement": "Tmax, median and range", "setting": "[1]; 120 mg once daily, Day 7, fed", "result": "2.5 (1-4)^ h"}, {"measurement": "AUC0-24, mean (SD)", "setting": "[1]; 360 mg once daily, Day 1, fed", "result": "19335 (3111) ng × h/mL"}, {"measurement": "Cmax, mean (SD)", "setting": "[1]; 360 mg once daily, Day 1, fed", "result": "3220 (1171) ng/mL"}, {"measurement": "Tmax, median and range", "setting": "[1]; 360 mg once daily, Day 1, fed", "result": "3 (2-5) h"}, {"measurement": "AUC0-24, mean (SD)", "setting": "[1]; 360 mg once daily, Day 7, fed", "result": "21825 (3955) ng × h/mL"}, {"measurement": "Cmax, mean (SD)", "setting": "[1]; 360 mg once daily, Day 7, fed", "result": "3812 (1282) ng/mL"}, {"measurement": "T 1/2, mean (SD)", "setting": "[1]; 360 mg once daily, Day 7, fed", "result": "9 (2) h"}, {"measurement": "Tmax, median and range", "setting": "[1]; 360 mg once daily, Day 7, fed", "result": "2 (1-3) h"}, {"measurement": "half-life", "setting": "[1]; 40 mg once daily, Day 1, fed, read-out: T 1/2, mean (SD) (converted)", "result": 5, "unit": "h"}, {"measurement": "half-life", "setting": "[1]; 120 mg once daily, Day 1, fed, read-out: T 1/2, mean (SD) (converted)", "result": 4, "unit": "h"}, {"measurement": "half-life", "setting": "[1]; 360 mg once daily, Day 1, fed, read-out: T 1/2, mean (SD) (converted)", "result": 4, "unit": "h"}, {"measurement": "half-life", "setting": "[1]; once-daily dosing, read-out: t1/2 on Day 7 (converted)", "result": "~10", "unit": "h"}, {"measurement": "Steady state achieved by", "setting": "[1]; once-daily 40 to 360 mg", "result": "~5", "unit": "days"}]}
{"smiles": "CC(=O)N[C@H]1CC[C@H](NC(=O)CN2CCN(c3nncc(-c4ccc(C)cc4)n3)CC2)CC1", "note": "[Compound A]", "values": [{"measurement": "pKi", "setting": "human CYP11B2 (hCYP11B2)", "result": 8.90}, {"measurement": "inhibition of 46 primary molecular target receptors or enzymes", "setting": "[2]; 10 μmol/L", "result": "did not substantially inhibit"}, {"measurement": "pIC50", "setting": "[2]; any of 46 targets, read-out: IC50 for off-target receptors or enzymes", "result": "< 5.00"}, {"measurement": "reduction in aldosterone secretion", "setting": "[3]; concentrations ≥0.11 μmol/L", "result": "> 50", "unit": "%"}, {"measurement": "reduction in corticosterone", "setting": "[3]; concentrations ≥1 μmol/L", "result": "> 50", "unit": "%"}, {"measurement": "reductions in pregnenolone, progesterone, 17α-hydroxyprogesterone, 11-DOC, corticosterone, and cortisol", "setting": "[3]; top concentration 3 μmol/L", "result": "< 50", "unit": "%"}, {"measurement": "NOAEL at 13 weeks", "setting": "[4]", "result": 50, "unit": "mg/kg/day"}, {"measurement": "histopathological findings", "setting": "Sprague Dawley rats", "result": "vacuolation of zona fasciculata cells and hypertrophy of zona glomerulosa cells in the adrenal glands"}]}
